Test results published in PubChem BioAssay (NCI).
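Dose response: 5 concentrations. Exposure: 48 h. Format: 96-well plates. Endpoint: linear interpolation; highest concentration if not reached. Here, GI50 denotes the concentration required for 50% inhibition of growth. The concentration for full growth arrest is given as TGI.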

Key:
Test in all cases: inhibition of tumour cell growth, NCI panel, 48 h
ACHN renal = system: ACHN renal
CAKI-1 renal = system: CAKI-1 renal
HCT-116 colon = system: HCT-116 colon
MCF7 breast = system: MCF7 breast
NCI-H522 lung = system: NCI-H522 lung
NCI/ADR-RES ovarian = system: NCI/ADR-RES ovarian
OVCAR-3 ovarian = system: OVCAR-3 ovarian
PC-3 prostate = system: PC-3 prostate
SF-268 CNS = system: SF-268 CNS
TK-10 renal = system: TK-10 renal

Compound | GI50 (ACHN renal) [µM] | TGI (ACHN renal) [µM] | GI50 (CAKI-1 renal) [µM] | TGI (CAKI-1 renal) [µM] | GI50 (HCT-116 colon) [µM] | TGI (HCT-116 colon) [µM] | GI50 (MCF7 breast) [µM] | TGI (MCF7 breast) [µM] | GI50 (NCI-H522 lung) [µM] | TGI (NCI-H522 lung) [µM] | GI50 (NCI/ADR-RES ovarian) [µM] | TGI (NCI/ADR-RES ovarian) [µM] | GI50 (OVCAR-3 ovarian) [µM] | TGI (OVCAR-3 ovarian) [µM] | GI50 (PC-3 prostate) [µM] | TGI (PC-3 prostate) [µM] | GI50 (SF-268 CNS) [µM] | TGI (SF-268 CNS) [µM] | GI50 (TK-10 renal) [µM] | TGI (TK-10 renal) [µM]
COc1ccc(-c2c(Nc3ccccn3)nc3c(C4=CCCCC4)c(-c4ccccc4)[nH]n3c2=O)cc1 | 2 | 24.9 | 2.48 | 15.1 | 1.32 | 11.8 | 1.81 | 15.5 | 3.55 | 23.9 | 2.57 | > 100 | 1.94 | > 100 | 2.17 | > 100 | 2.64 | 42.4 | 4.82 | 19.1
CCCCCCCCCCCCOC1C(C(COC2OC(C(O)CO)C3OC(C)(C)OC23)OC(=O)Nc2ccccc2)OC2OC(C)(C)OC21 (stereo not given) | 4.82 | 16.3 | 12 | 25.9 | 2.14 | 5.79 | 3.85 | 13.6 | 9.89 | 29.2 | 6.04 | 18.4 | 6.52 | 19.6 | 3.57 | 13.1 | 4.47 | 16.6 | 4.72 | 9.91
COc1cc(/C=C/C(=O)c2nc3cc(F)ccc3nc2C)cc(OC)c1OC | 10.3 | > 100 | 7.42 | > 100 | 3.59 | > 51.6 | 2.3 | > 100 | 6.98 | > 100 | 14.2 | > 91.1 | 2.59 | > 28.1 | 6.05 | > 100 | 7.01 | > 100 | > 100 | > 100
CC1=C(C(=O)Nc2ccc3[nH]ncc3c2)C(c2ccc(F)cc2)N=C(c2ccc(C(F)(F)F)nc2)N1 (stereo not given) | 13.3 | > 25 | 11.9 | > 25 | 13.2 | > 25 | 7.71 | > 25 | 7.06 | > 25 | 18.5 | > 25 | 9.07 | > 25 | 13.1 | > 25 | 10.7 | > 25 | > 24.1 | > 25
COc1ccc(Cn2c(Br)c3c(c2-c2cc(OC)c(OC)c(OC)c2)CCc2sc(N)nc2-3)cc1 | 1.07 | 25.7 | 0.765 | > 28.2 | 1.4 | > 100 | 0.371 | 18.9 | 0.263 | 1.09 | 0.866 | 36.3 | 0.861 | 9.61 | 1.57 | > 100 | 1.73 | 20.8 | 1.1 | 6.96
